In patent publication US6500820B1, “Pharmaceutical composition for neurotrophic action” (priority 1998, dated 2002):

Tests used:
[1] = tested on: choline acetyltransferase (ChAT); assay: choline acetyltransferase (ChAT) activity in rat septal neurons cultured on rat hippocampal astrocyte feeder layer; assay type: cell-based; conditions: for ChAT activity: compound A 10-1000 nM
Description: This experiment was done by a method reported by Pharmacology of Neurotrophic Factors, Ann. Rev. Pharmacol. Toxicol., Vol.37, pages 239-267, (1997).
Astrocytes were obtained from the new-born Sprague-Dawley (SD) rat hippocampus by trypsin digestion and cultured in a serum-containing medium in a culture flask. The confluent astrocytes were harvested and seeded on 96 well plates at the density of 5×10^4 cells/well and served as the feeder layer for neurons after halting the overgrowth with 10 μM cytosine arabinoside. Neurons were taken from the septal area of E17 fetal SD rats by trypsin digestion and seeded on the astrocyte feeder layer at the density of 7.5×10^4 cells/well in a serum-free medium. On the next day, the compound was added to the culture with or without 3 ng/ml recombinant human NGF (rhNGF) and cultured further for 7 days. Then cells were lysed with 5 mM Tris-HCl (pH 7.4)/0.1% Triton X-100 and choline acetyltransferase (ChAT) activity was measured radiometrically by the method of Fonnum.

CA1 neurons = assay: 10-min forebrain ischemia (4-vessel occlusion) in rats, number of living CA1 pyramidal cells; assay type: in vivo, rat; conditions: male Wistar rats, 10-min 4 VO; 10 mg/kg orally 1 hr before and 4 hr after ischemia, then once daily for 6 days; counted 7 days after occlusion; P<0.05
Description: Male Wistar rats (Japan Clea Inc., Tokyo, Japan) aged 9 weeks were used. Rats were subjected to 10-min forebrain ischemia using a method reported by Pulsinelli W. A. and Brierley J. B., Stroke, Vol.10, pages 267-272, (1979). Compound A (10 mg/kg) was orally administered 1 hr before and 4 hr after the ischemic operation, and from the next day, it was administered once daily for 6 days.
Rats were sacrificed 7 days after occlusion for histopathological observation. Under deep pentobarbital anesthesia, rats were perfused transcardially with physiological saline solution. The brains were removed, soaked in FAM (formaline:acetic acid:methanol=1:1:8) solution, and embedded in paraffin. Serial coronal sections (6 μm) were cut at the level of the anterior hippocampus, approximately 3.8-4.3 mm posterior to the bregma and stained with hematoxilin and eosin. The number of living pyramidal cells per 250 μm length of CA1 sector were counted under a light microscope. The average of the right and left neuronal densities were defined as the neuronal density for each rat.
Group differences in the number of CA1 pyramidal cells were analyzed using Student t-tests.

[2] = in the presence of 3 ng/ml rhNGF, cultured 7 days (FIG. 2)
[3] = without rhNGF, cultured 7 days, rat septal neurons on astrocyte feeder layer (FIG. 1)

| Structure (SMILES) | low concentration from which neurotrophic action is shown ([1]; ChAT activity in rat septal neurons, with or without rhNGF) | ChAT activity [1, 2] | ChAT activity [1, 3] | number of CA1 pyramidal cells (survival of CA1 neurons) versus vehicle-treated 4 VO control (CA1 neurons) |
| --- | --- | --- | --- | --- |
| O=C(CCC1CCN(Cc2ccccc2)CC1)c1ccc2c(c1)NCCCC2.O=C(O)/C=C/C(=O)O [compound A, 3-[1-(phenylmethyl)-4-piperidinyl]-1-(2,3,4,5-tetrahydro-1H-1-benzazepin-8-yl)-1-propanone fumarate] | 10 nm | markedly elevated ChAT activity | apparently increased ChAT activity | significantly greater than that of the vehicle-control |
| Nc1c2c(nc3ccccc13)CCCC2 [tacrine, reference compound] |  | did not affect ChAT activity | did not affect ChAT activity |  |
